Earlier results, collected in patent US12454539B2, “Controlled-delivery cromakalim prodrugs” (Qlaris Bio, Inc., priority 2019, dated 2025).

What was measured:
[1] = test system: normotensive mouse model; conditions: once daily dosing
[2] = test system: KATP channels; conditions: membrane patches from rabbit mesenteric arterial smooth muscle cells, in the presence of ATP
[3] = test system: isolated rat mesenteric lymph vessels; conditions: increasing concentrations

Row | Structure (SMILES) | solubility in water | intraocular pressure (IOP) [1] | increase of open-state probability (Popen) of single KATP channels [2] | contractions of lymph vessels [3]
1 | CC1(C)Oc2ccc(C#N)cc2[C@@H](N2CCCC2=O)[C@@H]1OP(=O)(O)O [CKLP1] | more water soluble than levcromakalim | lower intraocular pressure |  | 
2 | CC1(C)Oc2ccc(C#N)cc2C(N2CCCC2=O)C1O (stereo not shown) [Cromakalim, cromakalim] |  |  | more than 9 fold | abolished the contractions of the vessels
